Test results: patent publication EP0478445B1, “Composition for cleaning and decontaminating, in particular surgical instruments” (priority 1990, dated 1992)

Legend:
[1] = Irritancy of the ingredient
[2] = Characteristics of the ingredients (pH, solubility); assay type: physicochemical
[3] = system: homme; settings: cited from earlier work

With `CCCCCCCCCCCC[N+](C)(C)CC(=O)[O-]` [lauryldiméthylcarboxyméthylammonium bétaine] as the compound, how does the “irritation des muqueuses et des yeux” value [1] read?
Its value is “n'irrite ni les muqueuses ni les yeux”.

For `CCCCCCCCC=CCCCCCCCC1=NCCN1CCO` [1-hydroxyéthyl-2-heptadécényl-imidazoline], which solubilité [2] is on record?
Its solubilité is “soluble dans la plupart des solvants polaires et apolaires”.

What does the source list for `C=O` [formaldéhyde]?
larmoiements (inhalation) ([3]; man, inhalation): ≥ 0,1 ppm; oedème pulmonaire ([3]; man, inhalation): 50 ppm; irritation oculaire superficielle ([3]; some exposed persons): ≥ 0,4 ppm

With “N|N'(N"-2-hydroxyéthyl-N"-carboxyéthylaminoéthyl) amidoacétate|-N,N-diméthyl-N-coco-ammoniumbétaine” as the compound, how does the solubilité [2] read?
The solubilité was “soluble de façon limpide dans l'eau, l'éthanol, l'isopropanol”.

And the “pH (à 10%)” value ([2]; at 10%)?
The value was 8-9.
